Literature values in paper PMC7904743, “WIDOCK: a reactive docking protocol for virtual screening of covalent inhibitors” (Journal of Computer-Aided Molecular Design, 2021).
Read-outs that look alike come from different tables or passages of the source.

Key:
[1] = thiol reactivity, cited from earlier work
OTUB2 = conditions: experimental actives if % labeling higher than 50%, cited from earlier work
NUDT7 = conditions: protein labeling at 200 μM; experimental actives if % labeling higher than 50%; cited from earlier work
[2] = natural log of average rate constant
[3] = natural logarithm of average rate constant
[4] = natural log of average kinetic rate constant

Structure (SMILES) | ln(avg k) [1, 2] | ln(avg k) [1, 3] | OTUB2 % labeling (OTUB2) | NUDT7 % labeling (NUDT7) | ln(avg k) [1, 4] | OTUB2 % labeling (OTUB2; OTUB2 protein labeling)
CC(c1ccccc1)N1CCN(C(=O)CCl)CC1 (stereo not shown) [PCM-0102710, CC(c1ccccc1)N1CCN(C(=O)CCl)CC1] | -15.723 | -15.723 | 12% | 0% | – | –
CN(CCC#N)C(=O)CCl [PCM-0102712, CN(CCC#N)C(=O)CCl] | -15.839 | -15.839 | 0% | 0% | – | –
CN(CC1CC1)C(=O)CCl [PCM-0102714, CN(CC1CC1)C(=O)CCl] | -16.302 | -16.302 | 0% | 0% | – | –
COc1cccc(C2CCCN2C(=O)CCl)c1 (stereo not shown) [PCM-0102716, COc1cccc(C2CCCN2C(=O)CCl)c1] | -15.631 | -15.631 | 9% | 68% | – | –
O=C(CCl)NCc1ccc(F)cc1C(F)(F)F [PCM-0102733, O=C(CCl)NCc1ccc(F)cc1C(F)(F)F] | -16.673 | -16.673 | 33% | 6% | – | –
COC(=O)C1(NC(=O)CCl)CCCCC1 [PCM-0102734, COC(=O)C1(NC(=O)CCl)CCCCC1] | -16.826 | -16.826 | 0% | 0% | – | –
C#Cc1cccc(NC(=O)CCl)c1 [PCM-0102735, C#Cc1cccc(NC(=O)CCl)c1] | -17.384 | – | – | 0% | -17.384 | 9%
CC(C)(C)c1nnc(NC(=O)CCl)s1 [PCM-0102736, CC(C)(C)c1nnc(NC(=O)CCl)s1] | -15.861 | – | – | 0% | -15.861 | 0%
O=C(CCl)Nc1ccc2c(c1)OC(F)(F)O2 [PCM-0102738, O=C(CCl)Nc1ccc2c(c1)OC(F)(F)O2] | -15.810 | – | – | 0% | -15.810 | 41%
O=C(CCl)N1CCN(Cc2ccsc2)CC1 [PCM-0102739, O=C(CCl)N1CCN(Cc2ccsc2)CC1] | -15.640 | – | – | 7% | -15.640 | 0%
Cc1ccc(S(N)(=O)=O)cc1NC(=O)CCl [PCM-0102744, Cc1ccc(S(N)(=O)=O)cc1NC(=O)CCl] | -16.170 | – | – | 0% | -16.170 | 10%
O=C(CCl)N(C1=CCCCC1)C1CC1 [PCM-0102745, O=C(CCl)N(C1=CCCCC1)C1CC1] | -16.466 | – | – | 0% | -16.466 | 0%
O=C(CCl)Nc1oncc1-c1ccccc1 [PCM-0102746, O=C(CCl)Nc1oncc1-c1ccccc1] | -16.489 | – | – | 0% | -16.489 | 64%
CN(Cc1cccc(F)c1)C(=O)CCl [PCM-0102747, CN(Cc1cccc(F)c1)C(=O)CCl] | -16.175 | – | – | 0% | -16.175 | 0%
CC(C)N1CCC(NC(=O)CCl)CC1 [PCM-0102748, CC(C)N1CCC(NC(=O)CCl)CC1] | -15.792 | – | – | 0% | -15.792 | 0%
O=C(CCl)N1CCOCC1 [PCM-0102749, O=C(CCl)N1CCOCC1] | -17.466 | – | – | 0% | -17.466 | 0%
CC1CN(c2ccc(NC(=O)CCl)cc2)CC(C)O1 (stereo not shown) [PCM-0102750, CC1CN(c2ccc(NC(=O)CCl)cc2)CC(C)O1] | -15.710 | – | – | 0% | -15.710 | 24%
O=C(CCl)N1CCCCCC1 [PCM-0102751, O=C(CCl)N1CCCCCC1] | -16.327 | – | – | 0% | -16.327 | 0%
O=C(CCl)NC(=O)NCc1cccs1 [PCM-0102753, O=C(CCl)NC(=O)NCc1cccs1] | -15.984 | – | – | 0% | -15.984 | 23%
CC(NC(=O)CCl)C(=O)N(C)C (stereo not shown) [PCM-0102754, CC(NC(=O)CCl)C(=O)N(C)C] | -16.933 | – | – | 0% | -16.933 | 0%
O=C(CCl)N(c1ccccc1)C1CCS(=O)(=O)C1 (stereo not shown) [PCM-0102755, O=C(CCl)N(c1ccccc1)C1CCS(=O)(=O)C1] | -15.253 | – | – | 17% | -15.253 | 0%
CN(CC1COc2ccccc2O1)C(=O)CCl (stereo not shown) [PCM-0102756, CN(CC1COc2ccccc2O1)C(=O)CCl] | -15.581 | – | – | 16% | -15.581 | 6%

Structure (SMILES) | ln(avg k) [1, 2] | ln(avg k) [1, 3] | OTUB2 % labeling (OTUB2) | NUDT7 % labeling (NUDT7) | ln(avg k) [1, 4] | OTUB2 % labeling (OTUB2; OTUB2 protein labeling)
NC(=O)c1ccccc1NC(=O)CCl [PCM-0102758, NC(=O)c1ccccc1NC(=O)CCl] | -15.095 | – | – | 0% | -15.095 | 0%
Cc1ccc(S(=O)(=O)N2CCN(C(=O)CCl)CC2)cc1 [PCM-0102759, Cc1ccc(S(=O)(=O)N2CCN(C(=O)CCl)CC2)cc1] | -15.424 | – | – | 12% | -15.424 | 0%
O=C(CCl)N(C1CCCCC1)C1CCS(=O)(=O)C1 (stereo not shown) [PCM-0102760, O=C(CCl)N(C1CCCCC1)C1CCS(=O)(=O)C1] | -15.274 | – | – | 8% | -15.274 | 0%
O=C(CCl)Nc1cc(Cl)ccc1F [PCM-0102762, O=C(CCl)Nc1cc(Cl)ccc1F] | -15.818 | – | – | 0% | -15.818 | 13%
COc1ccc(Cl)cc1C(=O)NNC(=O)CCl [PCM-0102763, COc1ccc(Cl)cc1C(=O)NNC(=O)CCl] | -16.746 | – | – | 10% | -16.746 | 64%
COC(=O)c1ccc(Cl)c(NC(=O)CCl)c1 [PCM-0102764, COC(=O)c1ccc(Cl)c(NC(=O)CCl)c1] | -16.022 | – | – | 7% | -16.022 | 29%
CSc1ccc(NC(=O)CCl)cc1 [PCM-0102772, CSc1ccc(NC(=O)CCl)cc1] | -15.893 | – | – | 13% | -15.893 | 28%
CC(C)(C)C(NC(=O)CCl)c1cccs1 (stereo not shown) [PCM-0102773, CC(C)(C)C(NC(=O)CCl)c1cccs1] | -16.457 | – | – | 9% | -16.457 | 0%
Cc1ccc(-c2nnc(C)[nH]2)c(NC(=O)CCl)c1 [PCM-0102775, Cc1ccc(-c2nnc(C)[nH]2)c(NC(=O)CCl)c1] | -16.632 | – | – | 13% | -16.632 | 0%
O=C(CCl)NNC(=O)C1CC1 [PCM-0102776, O=C(CCl)NNC(=O)C1CC1] | -17.370 | – | – | 0% | -17.370 | 23%
Cc1noc(C)c1CNC(=O)CCl [PCM-0102780, Cc1noc(C)c1CNC(=O)CCl] | -16.766 | – | – | 11% | -16.766 | 0%
O=C(CCl)N1CCC(C(=O)N2CCCCCC2)CC1 [PCM-0102781, O=C(CCl)N1CCC(C(=O)N2CCCCCC2)CC1] | -15.500 | – | – | 0% | -15.500 | 0%
CN(C(=O)CCl)C(C)(C)C#N [PCM-0102782, CN(C(=O)CCl)C(C)(C)C#N] | -16.514 | – | – | 0% | -16.514 | 0%
CC(c1ccc(F)cc1)N(C)C(=O)CCl (stereo not shown) [PCM-0102783, CC(c1ccc(F)cc1)N(C)C(=O)CCl] | -16.224 | – | – | 19% | -16.224 | 0%
O=C(CCl)Nc1nc(-c2cccs2)cs1 [PCM-0102784, O=C(CCl)Nc1nc(-c2cccs2)cs1] | -16.029 | – | – | 77% | -16.029 | 7%
Cc1ccsc1CN(C)C(=O)CCl [PCM-0102785, Cc1ccsc1CN(C)C(=O)CCl] | -15.849 | – | – | 20% | -15.849 | 0%
CC(C)(C)OC(=O)N1CCN(C(=O)CCl)CC1 [PCM-0102786, CC(C)(C)OC(=O)N1CCN(C(=O)CCl)CC1] | -15.946 | – | – | 0% | -15.946 | 0%
CN(Cc1ccccc1F)C(=O)CCl [PCM-0102787, CN(Cc1ccccc1F)C(=O)CCl] | -16.194 | – | – | 0% | -16.194 | 0%
CC1CC(C)CN(C(=O)CCl)C1 (stereo not shown) [PCM-0102789, CC1CC(C)CN(C(=O)CCl)C1] | -16.705 | – | – | 0% | -16.705 | 8%
O=C(CCl)NCc1cc(F)cc(F)c1 [PCM-0102790, O=C(CCl)NCc1cc(F)cc(F)c1] | -16.548 | – | – | 0% | -16.548 | 0%
CC(c1nc2ccccc2s1)N(C)C(=O)CCl (stereo not shown) [PCM-0102793, CC(c1nc2ccccc2s1)N(C)C(=O)CCl] | -15.755 | – | – | 0% | -15.755 | 19%
